{
  "source": "patent US9051277B2",
  "about": "“Phenyl(oxy/thio)alkanol derivatives” (Bayer Intellectual Property GmbH, priority 2009, dated 2015)",
  "key": {"[1]": {"tested_on": "Alternaria solani", "test": "Alternaria test (tomato)/protective", "format": "in vivo", "conditions": "protective, 100 ppm, evaluation 3 days after inoculation", "protocol": "[table] To produce a suitable preparation of active compound, 1 part by weight of active compound is mixed with the stated amounts of solvent and emulsifier, and the concentrate is diluted with water to the desired concentration. To test for protective activity, young plants are sprayed with the preparation of active compound at the stated application rate. After the spray coating has dried on, the plants are inoculated with an aqueous spore suspension of Alternaria solani. The plants are then placed in an incubation cabin at about 20° C. and 100% relative atmospheric humidity."}, "[2]": {"tested_on": "Pyrenophora teres", "test": "Pyrenophora teres test (barley)/protective", "format": "in vivo", "conditions": "protective, evaluation 8 days after inoculation", "protocol": "[table] To produce a suitable preparation of active compound, 1 part by weight of active compound is mixed with the stated amounts of solvent and emulsifier, and the concentrate is diluted with water to the desired concentration. To test for protective activity, young plants are sprayed with the preparation of active compound at the stated application rate. After the spray coating has dried on, the plants are sprayed with a spore suspension of Pyrenophora teres. The plants remain in an incubation cabin at 20° C. and a relative atmospheric humidity of 100% for 48 hours."}, "[3]": {"tested_on": "Fusarium proliferatum", "test": "Production of fumonisin FB1 by Fusarium proliferatum", "format": "cell-based", "conditions": "120 h, read-out: inhibition of fumonisin FB1 production"}, "[4]": {"tested_on": "Fusarium graminearum", "test": "microbe, parasite or virus in culture", "format": "cell-based", "conditions": "168 h, read-out: inhibition of DON/AcDON production"}, "[5]": {"tested_on": "Aspergillus parasiticus", "test": "microbe, parasite or virus in culture", "format": "cell-based", "conditions": "168 h, read-out: inhibition of aflatoxin production"}, "[6]": {"tested_on": "Setaria viridis (green foxtail)", "test": "Phytoregulatory post-emergence action, SETVI", "format": "in vivo", "conditions": "80 g of a.i./ha, visual rating after about 3 weeks", "protocol": "(§1) Seeds of monocotyledonous and dicotyledonous crop plants are placed in sandy loam in wood-fibre pots, covered with soil and cultivated in a greenhouse under good growth conditions. 2 to 3 weeks after sowing, the test plants are treated at the one-leaf stage. The test compounds, formulated as wettable powders (WP), are, with a water application rate of 600 l/ha (converted), with 0.2% of wetting agent added, sprayed at various dosages onto the green parts of the plants. After the test plants have been kept in the greenhouse under optimum growth conditions for about 3 weeks, the activity of the preparations is rated visually in comparison to untreated controls (phytoregulatory activity in percent: 100% activity=maximum inhibition of plant growth, 0% activity=plant growth like that of an untreated control.)"}, "[7]": {"tested_on": "Triticum aestivum (common wheat)", "test": "Phytoregulatory post-emergence action, TRZAS", "format": "in vivo", "conditions": "80 g of a.i./ha, visual rating after about 3 weeks", "protocol": "as §1"}, "[8]": {"tested_on": "Brassica napus (rape)", "test": "Phytoregulatory post-emergence action, BRSNW", "format": "in vivo", "conditions": "80 g of a.i./ha, visual rating after about 3 weeks", "protocol": "as §1"}, "[9]": {"tested_on": "Oryza sativa (rice)", "test": "Phytoregulatory pre-emergence action, ORYSA", "format": "in vivo", "conditions": "80 g of a.i./ha, visual assessment after about 3 weeks", "excerpt": "(§2) Seeds of monocotyledonous or dicotyledonous crop plants are placed in wood-fibre pots in sandy loam and covered with soil. The test compounds, formulated in the form of wettable powders (WP), are then, as an aqueous suspension with a water application rate of 600 l/ha (converted), with 0.2% of wetting agent added, applied at various dosages to the surface of the covering soil. After the treatment, the pots are placed in a greenhouse and kept under good growth conditions for the test plants. The visual assessment of the suppression of growth in the test plants is carried out after a trial period of about 3 weeks by comparison with untreated controls (phytoregulatory activity in percent: 100% activity=maximum inhibition of plant growth, 0% activity=plant growth like that of an untreated control.)"}, "[10]": {"tested_on": "Brassica napus (rape)", "test": "Phytoregulatory pre-emergence action, BRSNW", "format": "in vivo", "conditions": "80 g of a.i./ha, visual assessment after about 3 weeks", "excerpt": "as §2"}},
  "data": [
    {"smiles": "CC(C)(C)C(O)(COc1ccc(I)cc1)Cn1cncn1", "note": "(stereo not shown) [Compound 1]", "values": [
      {"measurement": "Efficacy in %", "setting": "[1]", "value": 94, "unit": "%"},
      {"measurement": "Efficacy in %", "setting": "[2]; application rate 1000 ppm", "value": 86, "unit": "%"},
      {"measurement": "inhibition at 50 µM", "setting": "[3]", "value": "> 80", "unit": "%"},
      {"measurement": "inhibition at 50 µM", "setting": "[4]", "value": "> 80", "unit": "%"}
    ]},
    {"smiles": "CC(C)(C)C(O)(CSc1ccc(I)cc1)Cn1cncn1", "note": "(stereo not shown) [Compound 3]", "values": [
      {"measurement": "inhibition at 50 µM", "setting": "[3]", "value": "> 80", "unit": "%"},
      {"measurement": "inhibition at 50 µM", "setting": "[4]", "value": "> 80", "unit": "%"}
    ]},
    {"smiles": "CC(C)(C)C(O)(COc1ccc(Br)cc1)c1cncnc1", "note": "(stereo not shown) [Compound 11]", "values": [
      {"measurement": "Efficacy in %", "setting": "[1]", "value": 99, "unit": "%"},
      {"measurement": "Efficacy in %", "setting": "[2]; application rate 500 ppm", "value": 100, "unit": "%"},
      {"measurement": "inhibition at 50 µM", "setting": "[3]", "value": "> 80", "unit": "%"},
      {"measurement": "inhibition at 50 µM", "setting": "[4]", "value": "> 80", "unit": "%"},
      {"measurement": "inhibition at 50 µM", "setting": "[5]", "value": "> 80", "unit": "%"},
      {"measurement": "Inhibition of the growth of useful or harmful plants in % SETVI", "setting": "[6]", "value": 70, "unit": "%"},
      {"measurement": "Inhibition of the growth of useful or harmful plants in % TRZAS", "setting": "[7]", "value": 70, "unit": "%"},
      {"measurement": "Inhibition of the growth of useful or harmful plants in % BRSNW", "setting": "[8]", "value": 60, "unit": "%"},
      {"measurement": "Inhibition of the growth of useful or harmful plants in % ORYSA", "setting": "[9]", "value": 60, "unit": "%"},
      {"measurement": "Inhibition of the growth of useful or harmful plants in % BRSNW", "setting": "[10]", "value": 80, "unit": "%"}
    ]},
    {"smiles": "CC(C)(C)C(O)(CSc1ccc(Br)cc1)c1cncnc1", "note": "(stereo not shown) [Compound 13]", "values": [
      {"measurement": "inhibition at 50 µM", "setting": "[3]", "value": "> 80", "unit": "%"}
    ]},
    {"smiles": "CC(C)C(O)(COc1ccc(Br)cc1)c1cncnc1", "note": "(stereo not shown) [Compound 21]", "values": [
      {"measurement": "inhibition at 50 µM", "setting": "[3]", "value": "> 80", "unit": "%"},
      {"measurement": "inhibition at 50 µM", "setting": "[4]", "value": "> 80", "unit": "%"}
    ]},
    {"smiles": "CC(C)(C)C(O)(COc1ccc(Cl)cc1)c1cncnc1", "note": "(stereo not shown) [EP-A 0 028 755, Example 1, reference compound]", "values": [
      {"measurement": "Efficacy in %", "setting": "[1]", "value": 75, "unit": "%"},
      {"measurement": "Efficacy in %", "setting": "[2]; application rate 500 ppm", "value": 93, "unit": "%"},
      {"measurement": "Inhibition of the growth of useful or harmful plants in % SETVI", "setting": "[6]", "value": 50, "unit": "%"},
      {"measurement": "Inhibition of the growth of useful or harmful plants in % TRZAS", "setting": "[7]", "value": 50, "unit": "%"},
      {"measurement": "Inhibition of the growth of useful or harmful plants in % BRSNW", "setting": "[8]", "value": 60, "unit": "%"},
      {"measurement": "Inhibition of the growth of useful or harmful plants in % ORYSA", "setting": "[9]", "value": 40, "unit": "%"},
      {"measurement": "Inhibition of the growth of useful or harmful plants in % BRSNW", "setting": "[10]", "value": 70, "unit": "%"}
    ]},
    {"smiles": "CC(C)(C)C(O)(COc1ccc(Cl)cc1)Cn1cncn1", "note": "(stereo not shown) [EP-A 0 040 345, Example I-1, reference compound]", "values": [
      {"measurement": "Efficacy in %", "setting": "[1]", "value": 45, "unit": "%"},
      {"measurement": "Efficacy in %", "setting": "[2]; application rate 1000 ppm", "value": 57, "unit": "%"}
    ]}
  ]
}
